Assays:
[1] = Particle size and polydispersity of LNP containing pro-drug (dynamic light scattering); type: physicochemical; parameters: Size of LNP: unit not given here; details: for Particle Diameter (nm) / Polydispersity index (PDI): LNP containing 10 mol % conjugate, primary PC-lipid DMPC
Procedure: (§1) LNPs were prepared by dissolving 1,2-Distearoyl-sn-glycero-3-phosphocholine (DSPC) or 1,2-dimyristoyl-sn-glycero-3-phosphocholine (DMPC), cholesterol and 1,2-Distearoyl-sn-glycero-3-phosphoethanolamine-Poly(ethylene glycol) (PEG-DSPE) in ethanol. DSPC, DMPC and PEG-DSPE were purchased from Avanti Polar Lipids (Alabaster, Ala.), and cholesterol was obtained from Sigma (St Louis, Mo.).
(§2) Drug-lipid-conjugates INT-D034, INT-D035, INT-D045, INT-D046, INT-D047, INT-D048, INT-D049, INT-D050, INT-D051, INT-D053, INT-D060, INT-D061, INT-D062, INT-D063, INT-D083, INT-D085, INT-D086, INT-D088 and INT-D089 (see FIG. 3 and Example 7 for structures) were dissolved in isopropanol or THF. LNP were prepared by rapidly mixing DSPC or DMPC, cholesterol, drug-lipid conjugate, and PEG-DSPE (in molar ratio of 49/40/10/1) with phosphate-buffered saline (PBS) using a cross-junction mixer. Formulations were dialyzed against PBS to remove residual ethanol. In formulation$ with more than 10 mol % drug-lipid conjugates, the amount of phospholipid or cholesterol was reduced accordingly.
(§3) The physiochemical properties of the LNPs prepared as described above were subsequently characterized. Particle size was determined by dynamic light scattering using a Malvern Zetasizer Nano ZS (Malvern, UK) following buffer exchange into phosphate-buffered saline. Number-weighted size and distribution date was used. Lipid concentrations were determined by measuring total cholesterol using the Cholesterol E enzymatic assay kit from Wako Chemicals USA (Richmond, Va.). The morphology of LNP formulations containing LD-DEX was analyzed by cryogenic-transmission electron microscopy (cryoTEM).

[2] = Encapsulation efficiency / incorporation of pro-drug in LNP; type: physicochemical; details: for Encapsulation Efficiency (%): LNP containing 10 mol % conjugate, primary PC-lipid DMPC; for % Entrapment: LNP formulations containing pro-drugs (10 mol %, FIG. 6A)
Procedure: as §1, §2, §3

J774.2 = test: Pro-inflammatory cytokine expression in LPS-stimulated macrophage cell line J774.2 (qRT-PCR); type: cell-based; details: LNP formulation at doses equivalent to 1, 3 or 10 μM dexamethasone, 24 hours, 10 ng/mL LPS, versus control LNP
Procedure: (§4) The graph depicts the expression of the cytokines IL-1β (top), TNFα (middle) and IL-6 (bottom) after 24 hours of incubation of the cells with the above components at doses equivalent to 1, 3 or 10 μM of dexamethasone, followed by stimulation by 10 ng/mL lipopolysaccharide (LPS) overnight. Cytokine levels were measured by qRT-PCR and data was normalized to cells treated with control LNP without drug-lipid conjugates.
(§5) Cultured macrophage cell lines J774.2 (FIG. 8) and Raw264.7 (FIG. 9A) were incubated with immunostimulant LPS and LNP with or without ricinoleyl-dexamethasone conjugate INT-D034/INT-D035. After 24 hours, cells were harvested and were analyzed for expression of pro-Inflammatory cytokines IL1β, TNFα and IL-6. RNA was isolated from the cells and levels of pro-inflammatory cytokines ILIβ, TNFα and IL6 were determined by qRT-PCR.

Raw264.7 = test: Pro-inflammatory cytokine expression in LPS-stimulated Raw264.7 cells (qRT-PCR); type: cell-based; details: LNP formulation at doses equivalent to 1, 3 or 10 μM dexamethasone, 24 hours, 10 ng/mL LPS, versus control LNP
Procedure: as §4, with “IL-10” for “IL-1β”, “LPS” for “lipopolysaccharide (LPS)”
as §4, with “IL-10” for “IL-1β (top), TNFα (middle) and IL-6 (bottom)”, “1” for “1, 3”, “LPS” for “lipopolysaccharide (LPS)”
as §5

CD4+ T cells = test: Mixed lymphocyte reaction (MLR) assay, BMDCs with allogeneic CD4+ T cells; type: cell-based, mice; details: LNP containing 10-99 mol % conjugate; BMDCs treated 48 hours, LPS 24 hours; 5:1 or 10:1 T-to-BMDC ratio; 3 days; flow cytometry
Procedure: Bone marrow derived dendritic cells (BMDCs) from C57Bl/6 male mice were first treated with LNP containing various mol % of the dexamethasone or calcitriol conjugates for 48 hours and then activated by incubation with LIPS for 24 hours. They were then harvested and mixed with CD4+ T cells isolated from Balb/cJ male mice (Jackson Laboratories) at 5:1 or 10:1 T-to-BMDC ratio.
Dexamethasone and calcitriol can tolerize antigen presenting cells (APCs). […] Bone marrow derived dendritic cells (BMDCs) from C57BI/6 male mice (Charles River) were first treated with LNP containing various mol % of dexamethasone or calcitriol conjugates for 48 hours and then activated by incubation with LPS for 24 hours. They were then harvested and mixed with CD4+ T cells isolated from Balb/cl male mice (Jackson Laboratories) at 5:1 or 10:1 T-to-BMDC ratio. The levels of T cells proliferation after 3 days were quantified using flow cytometry.

[3] = Dissociation of pro-drugs from LNP after incubation in human plasma (size exclusion chromatography, UPLC); type: in vitro ADME; details: 10 mol % in LNP, 2 hours, 37° C. (FIG. 6A)
Source text: The release of ricinoleyl-dexamethasone conjugates from LNP was examined using an assay involving human plasma, which contains lipoproteins as a lipid sink for lipid exchanges to occur. The plasma lacked active esterases that may digest the ricinoleyl-dexamethasone conjugates, which would in turn prevent the detection and monitoring of intact conjugates.
LNP formulations containing 10-99 mol % INT-D034, INT-D035, INT-D045, INT-D046, INT-0047, INT-D048 or INT-D049, INT-D050, INT-D051, INT-D053, INT-D083, INT-D085, INT-D086 or INT-D089 (see FIG. 3 and Example 7 for structures) were subjected to incubation in human plasma for 0, 2 or 24 hours at 37° C. at 1.2 mM total lipid. Size exclusion chromatography was performed to separate LNP from lipoproteins (1.5×27 cm Sepharose […] size exclusion column). Thirty fractions of 2 mL were collected and three volumes of isopropanol/methanol (1:1 v/v) were added to each fraction.
Drug-lipid conjugates were quantified by ultra high pressure liquid chromatography (UPLC) using a Water® Acquity™ UPLC system equipped with a photodiode array detector (PDA); Empower™ data acquisition software version 2.0 was used (Waters, USA). […] The method was run over 6 minutes with a column temperature of 55° C. and the analyte was measured by monitoring the PDA detector at a wavelength of 239 nm.

[4] = LNP formulations containing pro-drugs (10 mol %, FIG. 6A)
[5] = LNP, pro-drug concentration 10 %
[6] = LNP, pro-drug concentration 20 %
[7] = LNP, pro-drug concentration 80 %
[8] = LNP, pro-drug concentration 90 %
[9] = LNP, pro-drug concentration 99 %
[10] = LNP, pro-drug concentration 60 %

CCCCCCCC/C=C\CCCCCCCC(=O)O[C@@H](C/C=C\CCCCCCCCOC(=O)CCC(=O)OCC(=O)[C@@]1(O)[C@H](C)C[C@H]2[C@@H]3CCC4=CC(=O)C=C[C@]4(C)[C@@]3(F)[C@@H](O)C[C@@]21C)CCCCCC [INT-D035, 2-((8S,9R,10S,11S,13S,14S,16R,17R)-9-fluoro-11,17-dihydroxy-10,13,16-trimethyl-3-oxo-6,7,8,9,10,11,12,13,14,15,16,17-dodecahydro-3H-cyclopenta[a]phenanthren-17-yl)-2-oxoethyl ((R,Z)-12-(oleoyloxy)octadec-9-en-1-yl) succinate]
Particle Diameter (nm) [1]: 67 nm
Polydispersity index (PDI) [1]: 0.03
PdI [1, 4]: 0.11
Size of LNP [1, 4]: 64
Encapsulation Efficiency (%) [2]: 100%
% Entrapment [2]: 99%
levels of pro-inflammatory cytokines (IL1β, TNFα, IL-6) (J774.2): reduced levels of pro-inflammatory cytokines in a dose-dependent manner
levels of pro-inflammatory cytokines (IL1β, TNFα, IL-6) (Raw264.7): reduced levels of pro-inflammatory cytokines in a dose-dependent manner

CCCCC/C=C\C/C=C\CCCCCCCC(=O)O[C@@H](C/C=C\CCCCCCCCOC(=O)CCC(=O)OCC(=O)[C@@]1(O)[C@H](C)C[C@H]2[C@@H]3CCC4=CC(=O)C=C[C@]4(C)[C@@]3(F)[C@@H](O)C[C@@]21C)CCCCCC [INT-D045, 2-((8S,9R,10S,11S,13S,14S,16R,17R)-9-fluoro-11,17-dihydroxy-10,13,16-trimethyl-3-oxo-6,7,8,9,10,11,12,13,14,15,16,17-dodecahydro-3H-cyclopenta[a]phenanthren-17-yl)-2-oxoethyl ((R,Z)-12-(linoleoyloxy)octadec-9-en-1-yl) succinate]
Particle Diameter (nm) [1]: 68 nm
Polydispersity index (PDI) [1]: 0.03
PdI [1, 4]: 0.03
Size of LNP [1, 4]: 64
PdI [1, 5]: 0.076
Size (nm) [1, 5]: 46 nm
PdI [1, 6]: 0.073
Size (nm) [1, 6]: 48 nm
PdI [1, 7]: 0.033
Size (nm) [1, 7]: 69 nm
PdI [1, 8]: 0.054
Size (nm) [1, 8]: 74 nm
PdI [1, 9]: 0.045
Size (nm) [1, 9]: 75 nm
Encapsulation Efficiency (%) [2]: 99%
% Entrapment [2]: 100%
allogeneic T-cell proliferation (CD4+ T cells): able to suppress allogeneic T-cell proliferation

CCCCCC[C@H](C/C=C\CCCCCCCCOC(=O)CCC(=O)OCC(=O)[C@@]1(O)[C@H](C)C[C@H]2[C@@H]3CCC4=CC(=O)C=C[C@]4(C)[C@@]3(F)[C@@H](O)C[C@@]21C)OC(C)=O [INT-D047, (R,Z)-12-acetoxyoctadec-9-en-1-yl (2-((8S,9R,10S,11S,13S,14S,16R,17R)-9-fluoro-11,17-dihydroxy-10,13,16-trimethyl-3-oxo-6,7,8,9,10,11,12,13,14,15,16,17-dodecahydro-3H-cyclopenta[a]phenanthren-17-yl)-2-oxoethyl) succinate]
Particle Diameter (nm) [1]: 68 nm
Polydispersity index (PDI) [1]: 0.02
PdI [1, 4]: 0.06
Size of LNP [1, 4]: 70
Encapsulation Efficiency (%) [2]: 100%
% Entrapment [2]: 100%
pro-drug remained in LNP [3]: ~40%

CCCCC/C=C\C/C=C\CCCCCCCC(=O)OC(CCCCCCCC)C(CCCCCCCC(=O)OCC(=O)[C@@]1(O)[C@H](C)C[C@H]2[C@@H]3CCC4=CC(=O)C=C[C@]4(C)[C@@]3(F)[C@@H](O)C[C@@]21C)OC(=O)CCCCCCC/C=C\C/C=C\CCCCC (stereo partly drawn) [INT-D086, 1-(2-((8S,9R,10S,11S,13S,14S,16R,17R)-9-Fluoro-11,17-dihydroxy-10,13,16-trimethyl-3-oxo-6,7,8,9,10,11,12,13,14,15,16,17-dodecahydro-3H-cyclopenta[a]phenanthren-17-yl)-2-oxoethoxy)-1-oxooctadecane-9,10-diyl (9Z,9′Z,12Z,12′4)-bis(octadeca-9,12-dienoate)]
PdI [1, 4]: 0.08
Size of LNP [1, 4]: 38
PdI [1, 5]: 0.082
Size (nm) [1, 5]: 38 nm
PdI [1, 6]: 0.117
Size (nm) [1, 6]: 35 nm
PdI [1, 10]: 0.036
Size (nm) [1, 10]: 82 nm
PdI [1, 7]: 0.028
Size (nm) [1, 7]: 165 nm
PdI [1, 9]: 0.026
Size (nm) [1, 9]: 160 nm
% Entrapment [2]: 92%
pro-drug remained in LNP [3]: over 90%

(1R,3S,2)-3-hydroxy-5-(2-((1R,3aS,7aR,E)-1-((R)-6-hydroxy-6-methylheptan-2-yl)-7a-methyloctahydro-4H-inden-4-ylidene)ethylidene)-4-methylenecyclohexyl (R,Z)-12-acetoxyoctadec-9-enoate and (1S,5R,Z)-5-hydroxy-3-(2-((1R,3aS,7aR,E)-1-((R)-6-hydroxy-6-methylheptan-2-yl)-7a-methyloctahydro-4H-inden-4-ylidene)ethylidene)-2-methylenecyclohexyl(RA-12-acetoxyoctadec-9-enoate [INT-D053]
PdI [1, 5]: 0.081
Size (nm) [1, 5]: 54 nm
PdI [1, 6]: 0.052
Size (nm) [1, 6]: 56 nm
PdI [1, 7]: 0.029
Size (nm) [1, 7]: 106 nm
PdI [1, 9]: 0.018
Size (nm) [1, 9]: 98 nm
allogeneic T-cell proliferation (CD4+ T cells): able to suppress allogeneic T-cell proliferation

— US20220226480A1, “LIPID CONJUGATE PREPARED FROM SCAFFOLD MOIETY” (Integrated Nanotherapeutics Inc., priority 2019, published 2022)
